# Numbered stars: 1 amine (or outer) side, 2 acyl side, 3 side chain; on linkers, the order of the positions; unused ones are H or OH. Bridge positions count the residues as written; N and C are the ends. Square brackets hold non-standard residues; d marks the D form. Peptide text beside a SMILES is read from it. ξ: configuration not given here. X1 = CC(C)C[C@H](N[*:1])C(=O)NC(=O)[*:2]; NMeNle = CCCC[C@H](NC)C(=O)O; NMeA = CN[C@@H](C)C(=O)O; ξP = O=C(O)C1CCCN1; ξC = NC(CS)C(=O)O; Sar = CNCC(=O)O
# Biological target: Programmed cell death 1 ligand 1 (Homo sapiens, UniProt Q9NZQ7)
# Assay: Inhibition of PD-L1 (unknown origin)
# Sequence of Programmed cell death 1 ligand 1 (Q9NZQ7 whole entry): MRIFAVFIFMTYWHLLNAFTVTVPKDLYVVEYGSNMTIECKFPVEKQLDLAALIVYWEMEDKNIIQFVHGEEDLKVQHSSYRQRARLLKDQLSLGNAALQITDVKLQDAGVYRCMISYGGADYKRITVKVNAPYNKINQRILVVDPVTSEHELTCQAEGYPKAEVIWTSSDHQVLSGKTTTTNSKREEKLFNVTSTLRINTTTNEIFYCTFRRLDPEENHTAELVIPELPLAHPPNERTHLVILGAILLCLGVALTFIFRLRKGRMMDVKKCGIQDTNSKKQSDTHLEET
smiles,measurement,value
CCCC[C@H]1C(=O)N(C)[C@@H](CCCC)C(=O)N[C@@H](CCCNC(=N)N)C(=O)NC(C(=O)NCC(N)=O)CSCC(=O)N[C@@H](Cc2ccccc2)C(=O)N(C)[C@@H](C)C(=O)N[C@@H](CC(N)=O)C(=O)N2CCCC2C(=O)N[C@@H](CC(C)C)C(=O)NC(=O)N(C)CC(=O)NCC(=O)N[C@@H](Cc2c[nH]c3ccccc23)C(=O)N[C@@H](Cc2c[nH]c3ccccc23)C(=O)N1C (stereo partly specified) ({CH2CO}-F[NMeA]N[ξP][X1][Sar]GWW[NMeNle][NMeNle]R[ξC]G-NH2; thioether N-13),IC50,5.2 nM

# Reference: ChEMBL document CHEMBL4261578, “Structure-Function Analysis of Immune Checkpoint Receptors to Guide Emerging Anticancer Immunotherapy” (J Med Chem, 2018)
